Molecular target: IRE1α (Homo sapiens (Human), UniProt O75460, D688N)
Experiment: IRE1α TR-FRET competition binding assay (IRE1α HTRF)
Details: TR-FRET competition binding to kinase domain of IRE1α
Method in brief: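 Competition of compounds against an Alexa fluor 647 ATP-site probe (2 nM final) for the His-tagged kinase domain (0.25 nM final), detected via 2 nM Eu anti-His antibody by TR-FRET, 665 and 615 nm emission. Protein–antibody premix 1 h, 4° C; reaction 1 h, room temperature, pH 7.5 HEPES buffer.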

IRE1α, sequence (O75460 547-977 D688N): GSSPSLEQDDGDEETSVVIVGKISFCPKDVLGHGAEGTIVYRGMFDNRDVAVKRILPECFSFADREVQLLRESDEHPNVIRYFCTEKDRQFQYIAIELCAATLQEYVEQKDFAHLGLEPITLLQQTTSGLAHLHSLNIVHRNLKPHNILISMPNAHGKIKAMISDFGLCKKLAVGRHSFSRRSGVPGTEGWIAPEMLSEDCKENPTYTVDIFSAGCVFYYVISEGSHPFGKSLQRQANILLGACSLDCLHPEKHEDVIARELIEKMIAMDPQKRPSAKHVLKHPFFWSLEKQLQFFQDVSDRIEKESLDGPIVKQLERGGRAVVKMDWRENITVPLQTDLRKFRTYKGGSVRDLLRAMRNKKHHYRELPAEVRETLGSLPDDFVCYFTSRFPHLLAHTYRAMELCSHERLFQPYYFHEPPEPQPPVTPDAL

Compared with `CC(C)n1c(=O)c(-c2ccc(NS(=O)(=O)CCC(F)(F)F)nc2)cc2cnc(N[C@H]3CC[C@H](N(C)CCF)CC3)nc21` [Compound 143, 3,3,3-Trifluoro-N-(5-(2-(((1r,4r)-4-((2-fluoroethyl)(methyl)amino)cyclohexyl)amino)-8-isopropyl-7-oxo-7,8-dihydropyrido[2,3-d]pyrimidin-6-yl)pyridin-2-yl)propane-1-sulfonamide], `CC(C)n1c(=O)c(-c2ccc(NS(=O)(=O)CCC(F)(F)F)c(F)c2)cc2cnc(N[C@H]3CC[C@H](N(C)C)CC3)nc21` [Compound 91, N-(4-(2-(((1r,4r)-4-(Dimethylamino)cyclohexyl)amino)-8-isopropyl-7-oxo-7,8-dihydropyrido[2,3-d]pyrimidin-6-yl)-2-fluorophenyl)-3,3,3-trifluoropropane-1-sulfonamide] is 2.3-fold lower in IC50: 0.3 nM for the first, 0.13 nM for the second.

Compared with `CC(C)n1c(=O)c(-c2cc(F)c(NS(=O)(=O)Cc3ccccc3F)c(F)c2F)cc2cnc(N[C@@H]3CNC[C@H](O)C3)nc21` [Compound 89, 1-(2-fluorophenyl)-N-(2,3,6-trifluoro-4-(2-(((3S,5R)-5-hydroxypiperidin-3-yl)amino)-8-isopropyl-7-oxo-7,8-dihydropyrido[2,3-d]pyrimidin-6-yl)phenyl)methanesulfonamide], `Cn1c(=O)c(-c2ccc(NS(=O)(=O)Cc3ccccc3)c(F)c2F)cc2cnc(N[C@@H]3CNC[C@@H](F)C3)nc21` [Compound 2, N-(2,3-Difluoro-4-(2-(((3S,5S)-5-fluoropiperidin-3-yl)amino)-8-methyl-7-oxo-7,8-dihydropyrido[2,3-d]pyrimidin-6-yl)phenyl)-1-phenylmethanesulfonamide] is 6.2-fold higher in IC50: 0.34 nM for the first, 2.1 nM for the second.

Compared with `CC(C)n1c(=O)c(-c2cc(F)c(NS(=O)(=O)CCC(F)(F)F)c(F)c2F)cc2cnc(NC3CCC(N(C)C)C(F)C3)nc21` (stereo not drawn) [Compound 60, N-(4-(2-((4-(dimethylamino)-3-fluorocyclohexyl)amino)-8-isopropyl-7-oxo-7,8-dihydropyrido[2,3-d]pyrimidin-6-yl)-2,3,6-trifluorophenyl)-3,3,3-trifluoropropane-1-sulfonamide], `CC(C)n1c(=O)c(-c2cc(F)c(NS(=O)(=O)CCC(F)(F)F)c(F)c2)cc2cnc(NC3CC[C@H](N(C)C)C(F)C3)nc21` (single isomer, unassigned) [Compound 118B, N-(4-(2-((4-(Dimethylamino)-3-fluorocyclohexyl)amino)-8-isopropyl-7-oxo-7,8-dihydropyrido[2,3-d]pyrimidin-6-yl)-2,6-difluorophenyl)-3,3,3-trifluoropropane-1-sulfonamide] is 1.6-fold higher in IC50: 0.2 nM for the first, 0.32 nM for the second. The first is the more potent here.

First: CC(C)n1c(=O)c(-c2ccc(NS(=O)(=O)Cc3ccc(C#N)cc3)c(F)c2)nc2cnc(N[C@@H]3CNC[C@@H](F)C3)nc21 [Compound 81, 1-(4-Cyanophenyl)-N-[2-fluoro-4-[2-[[(3S,5S)-5-fluoro-3-piperidyl]amino]-8-isopropyl-7-oxo-pteridin-6-yl]phenyl]methanesulfonamide]
Second: Cc1ccc(CS(=O)(=O)Nc2c(F)cc(-c3nc4cnc(N[C@H]5CC[C@H](N(C)C)CC5)nc4n(C(C)C)c3=O)cc2F)cc1 [Example 246, N-[4-[2-[[4-(Dimethylamino)cyclohexyl]amino]-8-isopropyl-7-oxo-pteridin-6-yl]-2,6-difluoro-phenyl]-1-(p-tolyl)methanesulfonamide]
The IC50 of the first is 2-fold lower: 0.1 nM for the first, 0.2 nM for the second.

`CC(C)n1c(=O)c(-c2ccc(NS(=O)(=O)C3CC4(CCC4)C3)c(F)c2)nc2cnc(N[C@H]3CC[C@H](N(C)C)CC3)nc21` [Example 277, N-[4-[2-[[4-(Dimethylamino)cyclohexyl]amino]-8-isopropyl-7-oxo-pteridin-6-yl]-2-fluoro-phenyl]spiro[3.3]heptane-2-sulfonamide] and `CC(C)n1c(=O)c(-c2ccc(NS(=O)(=O)C3CCC(F)(F)CC3)c(F)c2)nc2cnc(N[C@H]3CC[C@H](N(C)C)CC3)nc21` [Example 280, N-[4-[2-[[4-(Dimethylamino)cyclohexyl]amino]-8-isopropyl-7-oxo-pteridin-6-yl]-2-fluoro-phenyl]-4,4-difluoro-cyclohexanesulfonamide] are the same in IC50: 0.2 nM for the first, 0.2 nM for the second.

Compared with `CC(C)n1c(=O)c(-c2ccc(NS(=O)(=O)CCC(F)(F)F)c(F)c2)cc2cnc(N[C@H]3CC[C@H](N(C)CC4COC4)CC3)nc21` [Compound 204, 3,3,3-Trifluoro-N-(2-fluoro-4-(8-isopropyl-2-(((1,4-trans)-4-(methyl(oxetan-3-ylmethyl)amino)cyclohexyl)amino)-7-oxo-7,8-dihydropyrido[2,3-d]pyrimidin-6-yl)phenyl)propane-1-sulfonamide], `CC[C@H](C)n1c(=O)c(-c2ccc(NS(=O)(=O)CCC(F)(F)F)c(F)c2)cc2cnc(N[C@H]3CC[C@H](N(C)C)CC3)nc21` (single isomer, unassigned) [Compound 203A] is 10-fold lower in IC50: 1 nM for the first, 0.1 nM for the second.

`CC(C)n1c(=O)c(-c2cc(F)c(NS(=O)(=O)Cc3ccc(F)cc3)cc2F)cc2cnc(N[C@H]3CC[C@H](N(C)C)CC3)nc21` [Compound 127, N-(4-(2-(((1r,4r)-4-(Dimethylamino)cyclohexyl)amino)-8-isopropyl-7-oxo-7,8-dihydropyrido[2,3-d]pyrimidin-6-yl)-2,5-difluorophenyl)-1-(4-fluorophenyl)methanesulfonamide] and `CC(C)n1c(=O)c(-c2cc(F)c(NS(=O)(=O)Cc3ccccc3)c(F)c2)nc2cnc(N[C@H]3CC[C@H](N(C)C)CC3)nc21` [Example 247, N-[4-[2-[[4-(Dimethylamino)cyclohexyl]amino]-8-isopropyl-7-oxo-pteridin-6-yl]-2,6-difluoro-phenyl]-1-phenyl-methanesulfonamide] are within 1.5-fold of each other in IC50: 0.11 nM for the first, 0.1 nM for the second.

First: O=c1c(-c2ccc(NS(=O)(=O)Cc3ccccc3)c(F)c2F)cc2cnc(N[C@@H]3CNC[C@@H](F)C3)nc2n1CC(F)(F)F [Compound 40, N-(2,3-Difluoro-4-(2-(((3S,5S)-5-fluoropiperidin-3-yl)amino)-7-oxo-8-(2,2,2-trifluoroethyl)-7,8-dihydropyrido[2,3-d]pyrimidin-6-yl)phenyl)-1-phenylmethanesulfonamide]
Second: CC(C)n1c(=O)c(-c2ccc(NS(=O)(=O)[C@@H]3C[C@H]3c3ccccc3)c(F)c2)nc2cnc(N[C@H]3CC[C@H](N(C)C)CC3)nc21 [Example 274, (1R,2S)—N-(4-(2-(((1r,4r)-4-(Dimethylamino)cyclohexyl)amino)-8-isopropyl-7-oxo-7,8-dihydropteridin-6-yl)-2-fluorophenyl)-2-phenylcyclopropane-1-sulfonamide]
The IC50 of the first is 8.5-fold higher: 1.7 nM for the first, 0.2 nM for the second.

Going from `CC(C)n1c(=O)c(-c2ccc(NS(=O)(=O)CC3CCCC3(F)F)c(F)c2)nc2cnc(N[C@H]3CC[C@H](N(C)C)CC3)nc21` (mixture of isomers) [Example 264, 1-(2,2-Difluorocyclopentyl)-N-[4-[2-[[4-(dimethylamino)cyclohexyl]amino]-8-isopropyl-7-oxo-pteridin-6-yl]-2-fluoro-phenyl]methanesulfonamide] to `CC(C)n1c(=O)c(-c2ccc(NS(=O)(=O)CC3CC(F)(F)C3)c(F)c2)cc2cnc(N[C@H]3CC[C@H](N(C)CCF)CC3)nc21` [Compound 156, 1-(3,3-Difluorocyclobutyl)-N-(2-fluoro-4-(2-(((1r,4r)-4-((2-fluoroethyl)(methyl)amino)cyclohexyl)amino)-8-isopropyl-7-oxo-7,8-dihydropyrido[2,3-d]pyrimidin-6-yl)phenyl)methanesulfonamide], the IC50 rises from 0.1 nM to 0.18 nM (1.8-fold). The first is the more potent here.
